Laboratory results from patent publication US11274332B2, “Methods of administering 3,4-diaminopyridine” (SERB SA, priority 2011, dated 2022).

Tests used:
[1] = Rat PK study, IV and oral TID amifampridine phosphate (Example 4); format: in vivo; settings: rat plasma
Protocol: The objective of this study was to determine the absolute bioavailability of amifampridine phosphate and the pharmacokinetics of amifampridine and its 3-N-acetyl metabolite upon single-dose IV and single-day oral dose (TID) administration.
Amifampridine phosphate was administered by IV bolus at 0.8 mg/kg (in saline) to 6 rats/sex and by oral gavage (in water) TID (approximately 6 hours apart) at dose levels of 2, 8, and 25 mg/kg/dose (equivalent to 6, 24, and 75 mg/kg/day) to 12 rats/sex/group, with oral Dose 1 given to fasted rats and Dose 2 and 3 with food ad libitum. For IV bolus dose and oral Dose 1 (dose administration No. 1), blood samples were collected from three animals/sex/timepoint at predose and 0.083 (IV only), 0.17, 0.25, 0.33, 0.5, 0.75, 1, 1.25 (IV only), 1.5, 2, 2.5, 3, and 6 hours post-dose; 0.17, 0.5, and 6 hours following the second oral dose (dose administration No. 2); and 0.17, 0.25, 0.33, 0.5, 0.75, 1, 1.5, 2, 3, 4, 6, 8, and 10 hours following the third oral dose (dose administration No. 3). The second and third oral doses were given at 6 and 12 hours, respectively, after the first dose. LC-MS/MS was used to quantify amifampridine, 3-N-acetyl and 4-N-acetyl amifampridine metabolites in rat plasma samples. […] Noncompartmental analysis was applied to the mean plasma amifampridine and 3-N-acetyl metabolite concentration data for male and female rats. […]

hKv1.7 = target: T1, hKv1.7 (Homo sapiens, UniProt Q96RP8); assay: Whole cell patch clamp inhibition of hKv1.7 current in transiently transfected CHO cells (Example 5); format: cell-based; settings: hKv1.7, up to 3000 μM
T1 construct: expressed in transfected cells; host or cells: CHO cells (transient transfection)
T1 sequence (Q96RP8 whole entry): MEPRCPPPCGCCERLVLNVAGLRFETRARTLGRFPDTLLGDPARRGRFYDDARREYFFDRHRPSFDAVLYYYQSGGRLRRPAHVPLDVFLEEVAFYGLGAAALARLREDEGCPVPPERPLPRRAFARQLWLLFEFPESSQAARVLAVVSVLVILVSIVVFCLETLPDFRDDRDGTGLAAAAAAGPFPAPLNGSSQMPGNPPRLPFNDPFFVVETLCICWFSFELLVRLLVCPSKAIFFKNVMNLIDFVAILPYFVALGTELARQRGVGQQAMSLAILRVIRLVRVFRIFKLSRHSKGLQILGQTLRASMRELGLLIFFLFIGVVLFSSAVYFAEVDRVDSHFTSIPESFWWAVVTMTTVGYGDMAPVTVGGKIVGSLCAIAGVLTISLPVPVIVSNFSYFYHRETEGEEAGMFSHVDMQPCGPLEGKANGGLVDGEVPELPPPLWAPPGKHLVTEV
Protocol: Chemicals used in solution preparation were purchased from Sigma-Aldrich (St. Louis, Mo.), unless otherwise noted, and were of ACS reagent grade purity or higher. Stock solutions of each test article (100.104 mM and 1.00 mM 3,4-DAP phosphate and 100.023 mM and 336.335 mM N-(4-aminopyridin-3-yl) acetamide HCl) were prepared in sterile water, stored refrigerated and used within one day. […] All test article solutions contained 3% sterile water. The test articles were prepared in sufficient volume to run the assay (typically 50 mL).
CHO cells, transiently transfected with hKv1.7, were cryopreserved in 90% FBS and 10% DMSO. Frozen vials of cells were thawed rapidly in a 37° C. water bath. Cells were transferred to a 15 mL conical tube, 10 mL of growth media (Ham's/F12-PS/10% FBS) was added, the suspension was gently mixed and the tube was centrifuged at approximately 250×g for 5 min. The medium was removed, the cell pellet was resuspended in 20 mL of medium, and cells were triturated to disperse cell clumps. For electrophysiology use, 2 mL of the cell suspension was plated in each 35 mm cell culture dish. Recording began 2-3 hours after plating once the cells settled out of the media and adhered to the bottom of the culture dish. […]
Cells were transferred to the recording chamber and superfused with vehicle control solution. […] Onset and steady state inhibition of hKv1.7 current due to the test article was measured using a pulse pattern with fixed amplitudes (depolarization: +10 mV amplitude, 300 ms duration) repeated at 10-second intervals from a holding potential of −80 mV. Current amplitude was measured at the end of the step to +10 mV. Current was monitored until a new steady state was achieved. […] The IC50 for sustained current was calculated for 3,4-DAP phosphate salt.
For 3,4-DAP phosphate salt, the concentration-response relationship was evaluated at seven concentrations (1, 10, 30, 100, 300, 1000 and 3000 μM) and for N-(4-aminopyridin-3-yl) acetamide HCl salt, the concentration-response relationship was evaluated at three concentrations (100, 1000 and 3000 μM).

abundance of major circulating metabolite relative to 3,4-DAP [1]: more abundant than 3,4-DAP
activity on K+ channel (hKv1.7): inactive
activity on K+ channel (hKv1.7; listed as N-acetyl metabolite): not active
Structure (SMILES): CC(=O)Nc1cnccc1N [3-N-acetyl amifampridine, N-(4-aminopyridin-3-yl)acetamide]
